Counter-ions that a name gives are not always drawn. Like-named read-outs stand apart in the source and are kept apart here.
Assays:
[1] = Phase 1 study, food effect (fed and fasted state), single oral dose; type: in vivo, healthy subjects (humans); conditions: human, plasma; for AUC(0-t): composition No. 27 in capsules, healthy male subjects, read-out: AUC0-24 h
Text: Phase 1 study of 2-((5Z,8Z,11Z,14Z,17Z)-icosa-5,8,11,14,17-pentaenyloxy)butanoic acid (API) assessing the safety, tolerability, PK, and pharmacodynamics (PD) have been performed in healthy individuals. Each group consisted of 6 healthy subjects. The formulation according to the present disclosure included Tween 20 (40 wt %), Miglyol 812N (30 wt %) and API (30 wt %). The API was mixed with other components of the composition as described under “General procedures.” The formulation of this example corresponds to composition No. 27 of Example 1. The premix was filled into capsules and administered orally to humans.

[2] = Phase 1 study, escalating single oral doses 5 to 600 mg; type: in vivo, healthy subjects (humans); conditions: single oral doses between 5 to 600 mg, healthy subjects
Experimental: Phase 1 study of 2-((5Z,8Z,11Z,14Z,17Z)-icosa-5,8,11,14,17-pentaenyloxy)butanoic acid (API) assessing the safety, tolerability, PK, and pharmacodynamics (PD) has been performed in healthy individuals. Each dose group consisted of 6 healthy subjects. The initial dose of API received was 5 mg, and the maximum dose of API was 600 mg. The API was mixed with other components of the formulations according to Table 20, the premix was filled into capsules and administered orally to humans.
A minimum of 10 days intervene before each dose escalation. Escalating doses are administered to the groups sequentially.

[3] = Phase 1 study, individual variability in pharmacokinetics at 600 mg; type: in vivo, healthy subjects (humans); conditions: single oral dose 600 mg, composition No. 27, healthy male subjects
Experimental: Phase 1 study of 2-((5Z,8Z,11Z,14Z,17Z)-icosa-5,8,11,14,17-pentaenyloxy)butanoic acid (API) assessing the safety, tolerability, PK, and pharmacodynamics (PD) has been performed in healthy individuals. Each dose group consisted of 6 healthy subjects. The initial dose API received was 5 mg, and the maximum dose was 600 mg. Data presented here are with an API dose of 600 mg. This formulation included Tween 20 (40 wt %), Miglyol 812N (30 wt %) and API (30 wt %). The API was mixed with other components of the composition as described under “General procedures.” The formulation for this example corresponds to composition No. 27 of Example 1. A minimum of 10 days intervene before each dose escalation. Escalating doses were administered to the groups sequentially.

[4] = Phase 1 study, pharmacokinetics in male and female, 300 mg b.i.d for 14 days; type: in vivo, healthy subjects (humans); conditions: for AUC / Cmax: human, plasma, oral, composition No. 27; for AUC: read-out: Geometric mean AUC0-τ; for Cmax: read-out: Geometric mean Cmax
Experimental: Phase 1 study of 2-((5Z,8Z,11Z,14Z,17Z)-icosa-5,8,11,14,17-pentaenyloxy)butanoic acid (API) assessing the safety, tolerability, PK, and pharmacodynamics (PD) has been performed in healthy individuals. Each dose group consisted of 6 healthy subjects. An API dose of 300 mg b.i.d was given orally to males and females for 14 consecutive days. The formulation given included Tween 20 (40 wt %), Miglyol 812N (30 wt %) and API (30 wt %). The API was mixed with other components in the formulation as described under “General procedures.” The formulation of this example corresponds to composition No. 27 of Example 1.

[5] = Solubility of the API in water; type: physicochemical
Text: (§1) Thus, low bioavailability is expected.

[6] = Permeability of the API; type: in vitro ADME
Text: as §1

[7] = tested on: APOE*3Leiden.CETP transgenic mouse model; conditions: cited from earlier work
[8] = Solubility of salts in surfactants and co-solvents; type: physicochemical
Text: Salts prepared from monovalent counter ions are all highly soluble in surfactants according to the present disclosure and excellent pre-concentrates and SMEDDS can be prepared.

[9] = male, po, 100 mg, Fasted, single oral dose 100 mg API
[10] = male, po, 100 mg, Fed, single oral dose 100 mg API

For `CC/C=C\C/C=C\C/C=C\C/C=C\C/C=C\CCCCOC(CC)C(=O)O` (stereo not shown) [API, 2-((5Z,8Z,11Z,14Z,17Z)-icosa-5,8,11,14,17-pentaenyloxy)butanoic acid], which Tmax ([1]; both sexes, oral, healthy male and female subjects receiving single doses, read-out: mean Tmax) is on record?
The Tmax was 1 to 2 h.

And the Cmax [1, 9]?
Its Cmax is 2800 ng/mL.

And the half-life [1, 9]?
Its half-life is 6.36 ± 3.13 h.

And the AUC(0-t) [1, 9]?
Its AUC(0-t) is 14000 ng·h/mL.

And the Tmax ([1]; male, po, 100 mg, Fasted, single oral dose 100 mg API, read-out: Tmax)?
Its Tmax is 1.4 h.

And the Cmax [1, 10]?
Its Cmax is 2700 ng/mL.

And the half-life [1, 10]?
Its half-life is 6.29 ± 2.13 h.

And the AUC(0-t) [1, 10]?
The AUC(0-t) was 15000 ng·h/mL.

And the Tmax ([1]; male, po, 100 mg, Fed, single oral dose 100 mg API, read-out: Tmax)?
Its Tmax is 3.6 h.

And the “increase of exposure (Cmax and AUC0-24) with dose” value [2]?
The value was “higher than dose-proportional manner”.

And the “% CV (relative variability) of AUC0-24” value [3]?
The value was roughly 15%.

What about the “% CV (relative variability) of Cmax” value [3] of the same molecule?
Its value is “approximately 10%”.

And the “gender differences in pharmacokinetics (Cmax, AUC0-24)” value ([4]; 300 mg b.i.d, males and females, 14 consecutive days)?
Its value is “no gender differences in pharmacokinetics”.

And the “AUC Ratio E/M” value ([4]; Day 14, 300 mg b.i.d)?
Its value is 0.937.

What about the “Cmax Ratio E/M” value ([4]; Day 14, 300 mg b.i.d) of the same molecule?
Its value is 1.12.

What about the AUC ([4]; Female, Day 14, 300 mg b.i.d) of the same molecule?
The AUC was 75800 ng·h/mL.

What about the Cmax ([4]; Female, Day 14, 300 mg b.i.d) of the same molecule?
The Cmax was 15800 ng/mL.

And the AUC ([4]; Male, Day 14, 300 mg b.i.d)?
Its AUC is 80900 ng·h/mL.

And the Cmax ([4]; Male, Day 14, 300 mg b.i.d)?
Its Cmax is 14100 ng/mL.

What about the solubility in water [5] of the same molecule?
Its solubility in water is “low solubility in water”.

And the permeability [6]?
The permeability was “low permeability”.

What about the “HDL cholesterol as compared to a control” value [7] of the same molecule?
Its value is “increased”.

What about the “atherosclerotic lesion areas in the aorta as compared to a control” value [7] of the same molecule?
Its value is “decreased”.

And the “total cholesterol as compared to a control” value [7]?
Its value is “decreased”.

Which “solubility in surfactants and co-solvents” value [8] does the source give for `CC/C=C\C/C=C\C/C=C\C/C=C\C/C=C\CCCCOC(CC)C(=O)O` (stereo not shown) [magnesium salt, magnesium 2-((5Z,8Z,11Z,14Z,17Z)-icosa-5,8,11,14,17-pentaenyloxy)butanoate] here?
The value was “medium solubility”.
